Publication PMC3412276 (Molecular Microbiology, 2012)

Target: T1, TbPMI (phosphomannose isomerase) (Trypanosoma brucei, UniProt Q381V7)
T1 construct: gene Tb11.01.6410
T1 sequence (Q381V7 1-409): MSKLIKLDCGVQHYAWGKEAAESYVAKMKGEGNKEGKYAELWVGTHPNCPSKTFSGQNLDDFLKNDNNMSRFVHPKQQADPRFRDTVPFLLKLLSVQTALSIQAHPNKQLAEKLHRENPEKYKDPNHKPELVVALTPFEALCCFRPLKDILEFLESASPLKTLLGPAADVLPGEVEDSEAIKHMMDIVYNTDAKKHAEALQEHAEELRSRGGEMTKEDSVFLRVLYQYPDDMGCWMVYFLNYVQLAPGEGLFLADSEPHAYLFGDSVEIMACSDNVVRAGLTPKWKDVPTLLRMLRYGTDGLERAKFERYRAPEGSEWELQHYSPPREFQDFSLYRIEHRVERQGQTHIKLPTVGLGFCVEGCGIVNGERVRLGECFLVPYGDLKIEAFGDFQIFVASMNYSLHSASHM
Test: HPAEC with pulsed amperiometric detection
Format: biochemical
Conditions: 0.25 mM sugar-6P, 2 mM bis-tris propane pH 7.3, 2.5 mM MgCl2, 37°C, 15 min

For `O=P(O)(O)OC[C@H]1OC(O)(CO)[C@@H](O)[C@@H]1O` (some centres unmarked) [Fru-6P], which “HPAEC with pulsed amperiometric detection” value (converted to Man-6P) is on record?
The value was “to be able to convert Man-6P to Fru-6P and Fru-6P to Man-6P, as expected”.

`O=P(O)(O)OC[C@H]1OC(O)[C@@H](O)[C@@H](O)[C@@H]1O` (some centres unmarked) [Man-6P] was tested. Which “HPAEC with pulsed amperiometric detection” value (converted to Fru-6P) did it give?
Its value is “to be able to convert Man-6P to Fru-6P and Fru-6P to Man-6P, as expected”.
